Test results from publication PMC7522027 (Disease Models & Mechanisms, 2020).

Legend:
zebrafish embryos = experiment: zebrafish embryo assay (morphological developmental defects at 48 hpf); type: in vivo, zebrafish (Danio rerio)
Description: Zebrafish eggs obtained from family crosses of Tuebingen long fin zebrafish lines were used to assess the biological activity of all samples. The eggs were washed with fresh E3 medium and subsequently divided over 24-well plates, with ten embryos per well in 1000 µl E3 medium. Samples were added to the wells at various times as mentioned in the figures and legends. At 48 hpf, the zebrafish embryos were inspected for morphological developmental defects. Embryos displaying morphological defects were imaged using a Leica MZFLIII microscope equipped with a Leica DFC320 camera or Leica M165 FC microscope equipped with a Leica DMC5400 camera.

MEK (MEK1 wt) = target: T1, MEK (MEK1 wt) (Homo sapiens, UniProt Q02750); experiment: radiometric protein kinase assay, MEK; type: biochemical; conditions: [ATP] = 3 μM; Fig. 7H
T1 construct: purchased ProQinase GmbH (Freiburg, Germany); host or cells: bacteria (so in the source)
T1 sequence (Q02750 whole entry): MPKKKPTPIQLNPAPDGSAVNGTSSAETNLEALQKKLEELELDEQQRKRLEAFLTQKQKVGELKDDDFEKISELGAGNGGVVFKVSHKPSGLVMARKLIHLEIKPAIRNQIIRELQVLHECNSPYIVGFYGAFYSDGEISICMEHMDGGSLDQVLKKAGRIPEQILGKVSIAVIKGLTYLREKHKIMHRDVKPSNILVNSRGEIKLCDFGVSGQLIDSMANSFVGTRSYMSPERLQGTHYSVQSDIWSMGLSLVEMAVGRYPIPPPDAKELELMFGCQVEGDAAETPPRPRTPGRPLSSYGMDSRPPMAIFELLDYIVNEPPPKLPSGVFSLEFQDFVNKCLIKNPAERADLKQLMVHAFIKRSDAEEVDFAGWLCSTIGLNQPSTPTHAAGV
Description: (§1) IC50 values were calculated using Prism 5.04 for Windows (GraphPad, San Diego, CA, USA; www.graphpad.com). The mathematical model used was ‘Sigmoidal response (variable slope)’ with parameters ‘top’ fixed at 100% and ‘bottom’ at 0%. The fitting method used was a least-squares fit.

caALK2 = target: T2, caALK2 (Homo sapiens, UniProt Q04771, Q207D); experiment: caALK2-induced SMAD1/5 phosphorylation in HEK 293T cells; type: cell-based; conditions: cercosporamide 1-10 µM, LDN193189 200 nM
T2 construct: expressed in transfected cells; host or cells: HEK 293T
T2 sequence (Q04771 21-509 Q207D): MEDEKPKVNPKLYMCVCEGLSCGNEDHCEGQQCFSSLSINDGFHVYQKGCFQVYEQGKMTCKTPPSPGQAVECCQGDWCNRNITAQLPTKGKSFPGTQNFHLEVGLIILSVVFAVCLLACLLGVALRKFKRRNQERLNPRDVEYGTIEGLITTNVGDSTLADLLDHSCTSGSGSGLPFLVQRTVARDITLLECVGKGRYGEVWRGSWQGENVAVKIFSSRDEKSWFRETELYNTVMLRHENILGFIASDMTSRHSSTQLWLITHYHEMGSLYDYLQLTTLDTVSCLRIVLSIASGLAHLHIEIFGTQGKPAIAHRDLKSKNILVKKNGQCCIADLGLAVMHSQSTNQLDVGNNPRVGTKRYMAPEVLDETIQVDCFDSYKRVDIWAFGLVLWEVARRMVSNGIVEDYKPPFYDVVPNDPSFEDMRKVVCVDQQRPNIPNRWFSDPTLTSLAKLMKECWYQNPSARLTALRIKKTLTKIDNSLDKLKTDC
From the text: HepG2 or HEK 293T cells were lysed in Laemmli sample buffer. Proteins were separated by sodium dodecyl sulfate polyacrylamide gel electrophoresis (SDS-PAGE) and transferred onto […] polyvinylidene difluoride (PVDF) membrane (IPVH00010, Merck Millipore). Membranes were blocked using 5% non-fat dry milk in Tris-buffered saline with 0.1% Tween 20 (655204, Merck Millipore) and probed with the respective primary and secondary antibodies. The signal was detected using Clarity™ Western ECL Substrate (1705060, Bio-Rad) and ChemiDoc Imaging System (17001402, Bio-Rad). The antibodies used for immunoblotting were raised against the following proteins: phospho-SMAD1/5/8 ([Persson et al., 1998]; 1:1000), SMAD1 (Cell Signaling Technology, #6944; 1:1000), GAPDH (Merck Millipore, #G8795; 1:5000) and hemagglutinin (HA; Roche, #12CA5; 1:1000).
For experiments with the caALK type I receptor constructs, HEK 293T cells were seeded in 24-well plates at ∼90% confluency and transfected with the DNA expression constructs in the presence of PEI. Thirty hours after transfection, the cells were added to serum-starved medium and treated with compounds for 16 h (overnight). Subsequently, the cells were washed with PBS and lysed in Laemmli sample buffer. […]

BMPR1A (ALK3) = target: T3, BMPR1A (ALK3) (Homo sapiens, UniProt P36894); experiment: radiometric protein kinase assay, ALK3; type: biochemical; conditions: [ATP] = 0.3μM; Fig. 7F
T3 construct: purchased ProQinase GmbH (Freiburg, Germany); host or cells: bacteria (so in the source)
T3 sequence (P36894 24-532): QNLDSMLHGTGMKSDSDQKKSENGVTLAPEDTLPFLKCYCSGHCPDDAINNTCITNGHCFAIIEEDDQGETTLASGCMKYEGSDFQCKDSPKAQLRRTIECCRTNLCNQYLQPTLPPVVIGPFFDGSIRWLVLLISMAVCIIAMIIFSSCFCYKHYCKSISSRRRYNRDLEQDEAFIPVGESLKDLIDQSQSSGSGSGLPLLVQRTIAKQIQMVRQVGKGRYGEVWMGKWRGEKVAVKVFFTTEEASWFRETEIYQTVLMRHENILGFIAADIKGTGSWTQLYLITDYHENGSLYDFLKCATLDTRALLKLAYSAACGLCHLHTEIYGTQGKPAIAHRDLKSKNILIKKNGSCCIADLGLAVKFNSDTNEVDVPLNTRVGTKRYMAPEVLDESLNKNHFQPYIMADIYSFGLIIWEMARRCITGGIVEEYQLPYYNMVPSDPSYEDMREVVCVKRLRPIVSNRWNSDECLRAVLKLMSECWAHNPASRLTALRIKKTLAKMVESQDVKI
Description: as §1

CC(=O)C1=C(O)C=C2Oc3c(C(N)=O)c(O)cc(O)c3[C@]2(C)C1=O [cercosporamide, Cercosporamide]
phenotype, combination treatment (zebrafish embryos; 50 nM cercosporamide in combination with 5 µM LDN-193189, from 7 hpf onwards): partial loss of the ventral fin
developmental defects, single treatment (zebrafish embryos; 50 nM, from 7 hpf onwards): did not induce detectable developmental defects
phenotype at 48 hpf (zebrafish embryos; 100 nM, treatment from 7 hpf): abolished the effect
phenotype at 48 hpf (zebrafish embryos; 200 nM, treatment started at 2 hpf): severely truncated phenotype
phenotype at 48 hpf (zebrafish embryos; 200 nM, treatment started at 8 hpf): mild phenotype
phenotype at 48 hpf (zebrafish embryos; 1.5 µM, treatment from 7 hpf): severely truncated phenotype
phenotype at 48 hpf (zebrafish embryos; 3 µM, treatment from 7 hpf): severely truncated phenotype
lethal concentration in zebrafish embryos (zebrafish embryos; treatment from 7 hpf, continuous until 48 hpf): above 3 µM
IC50 (MEK (MEK1 wt)): 4.1 µM
effect on caALK2-induced SMAD1/5 phosphorylation (caALK2): inhibited SMAD1/5 phosphorylation
IC50 (BMPR1A (ALK3)): 0.36 µM
